Measured values: US12344649B2, “Modulators of parathyroid hormone receptor (PTHR1)” (Flagship Pioneering Innovations VI, LLC, priority 2019, dated 2025)
pEC50: −log10 of the molar value. Where “and” joins values, the source holds several entries; their conditions need not be identical. Equal entries are not always repeated. Where no end group is shown, it is not given here.

Experiments:
Format in all cases: cell-based
PTHR1 [1] = target: T1, PTHR1 (Homo sapiens, UniProt Q03431); experiment: β-arrestin1 recruitment BRET assay in transfected HEK293T cells; set-up: Flag (N); Life Technologies Corporation, CA (arrestin cDNA); host or cells: HEK293T (CRL-3216, ATCC); conditions: for −log10Slope / EC50: β-arrestin1 recruitment; for −log10Slope: fitted curve slope; for EC50: read-out: −log10EC50 (converted); for β1-arrestin: relative to PTH [1-34], HEK293T cells, BRET
T1 sequence (Q03431 27-593): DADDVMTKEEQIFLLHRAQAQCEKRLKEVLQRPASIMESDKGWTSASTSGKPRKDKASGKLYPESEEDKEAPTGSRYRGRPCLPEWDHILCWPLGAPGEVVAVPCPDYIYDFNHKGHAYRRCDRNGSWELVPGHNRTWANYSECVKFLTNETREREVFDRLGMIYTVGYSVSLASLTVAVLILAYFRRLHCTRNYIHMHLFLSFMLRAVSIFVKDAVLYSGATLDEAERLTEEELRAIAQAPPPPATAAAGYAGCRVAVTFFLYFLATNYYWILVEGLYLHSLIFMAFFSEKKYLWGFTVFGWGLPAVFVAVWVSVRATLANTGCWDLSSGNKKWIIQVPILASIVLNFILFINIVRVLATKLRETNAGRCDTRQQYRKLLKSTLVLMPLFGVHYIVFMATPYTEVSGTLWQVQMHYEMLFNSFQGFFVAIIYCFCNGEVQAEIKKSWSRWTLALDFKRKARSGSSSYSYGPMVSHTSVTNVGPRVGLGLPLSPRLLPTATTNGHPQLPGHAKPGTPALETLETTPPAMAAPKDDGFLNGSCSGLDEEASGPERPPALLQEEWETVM
Method: (§1) 18-24 hours post transfection, the Luciferase substrate Coelenterazine (NanoLight Technologies, AZ) was added to cells, a baseline BRET measurement was taken after 5 minutes incubation, and then serial dilutions of peptides, diluted in PBS (with 0.5 mM MgCl2+0.1% BSA FAF), were added to cells, and BRET signal was measured every 2 minutes for 30 minutes on Hybrid Multi-Mode Reader (Synergy Neo2, BioTek, VT). Seventy-five peptides were tested in the β-arrestin recruitment assay.

PTHR1 [2] = target: T1, PTHR1; experiment: β-arrestin2 recruitment BRET assay in transfected HEK293T cells; set-up: Flag (N); Life Technologies Corporation, CA (arrestin cDNA); host or cells: HEK293T (CRL-3216, ATCC); conditions: for −log10Slope / EC50: β-arrestin2 recruitment; for −log10Slope: fitted curve slope; for EC50: read-out: −log10EC50 (converted); for β-arrestin2 assay activity compared to control peptide: FIG. 2, PTH 1-34 positive control; for β2-arrestin: relative to PTH [1-34], HEK293T cells, BRET
Method: as §1

PTHR1 [3] = target: T1, PTHR1; experiment: cAMP accumulation assay (HTRF) in CHO-K1/Ga15/PTHR1 cells; set-up: host or cells: CHO-K1 (recombinant line CHO-K1/Ga15/PTHR1); conditions: for Emax: CHO-K1, cAMP assay, fitted dose-response maximum; for EC50: read-out: −log10EC50 (converted); for cAMP accumulation activity compared to control peptide: FIG. 3, PTH 1-34 positive control; for cAMP: relative to PTH [1-34], CHO-K1/Ga15/PTHR1 cells
Method: Cell suspension (5 μL) was seeded in 384-well plates at a density of 3,000 cells/well. Cells were treated with test samples (5 μL) or agonist (PTH 1-34) for 30 minutes at room temperature. cAMP-d2 working solution (5 μL) and anti-cAMP-Cryptate working solution (5 μL) were added to cells and incubated for 60 minutes at room temperature. The signal of the assay plate was read with PheraStar (BMG LABTECH, NC), an HTRF compatible reader.

[4] = cAMP assay, fitted dose-response curve
[5] = cAMP assay, fitted dose-response slope
[6] = cAMP accumulation, fitted curve slope, replicate plates
[7] = cAMP accumulation, replicate plates
[8] = replicate plates, listed as R1-81

−log10Slope (PTHR1 [1]; replicate plates) | −log10Slope (PTHR1 [2]; replicate plates) | Emax (PTHR1 [3]) [%] | EC50 (PTHR1 [3]; [4]) [nM] | −log10Slope (PTHR1 [3]; [5]) | EC50 (PTHR1 [1]; replicate plates) | β1-arrestin (PTHR1 [1]) | −log10Slope (PTHR1 [3]; [6]) | EC50 (PTHR1 [3]; [7]) [nM] | cAMP accumulation activity compared to control peptide (PTHR1 [3]) | cAMP (PTHR1 [3]) | EC50 (PTHR1 [2]; replicate plates) | β2-arrestin (PTHR1 [2]) | −log10Slope (PTHR1 [1]; [8]) | −log10Slope (PTHR1 [2]; [8]) | Sequence | β-arrestin1 recruitment compared to PTH 1-34 (PTHR1 [1]; FIG. 1, PTH 1-34 positive control) | β-arrestin2 assay activity compared to control peptide (PTHR1 [2]) | pEC50 (PTHR1 [1]; −log10EC50, β-arrestin1 recruitment, replicate plates) | pEC50 (PTHR1 [2]; −log10EC50, β-arrestin2 recruitment, replicate plates) | pEC50 (PTHR1 [3])
−6.023 and −5.129 and −4.482 | −5.84 and −1.653 and −5.805 | 99.9 | 52.8 | −12.0796 | 607 nM and 605 nM and 569 nM | – | – | – | – | – | – | – | – | – | AVAEIQLMHQRAKWELEYELFEMFLKLLEEIF [Peptide R1-100] | – | – | – | – | –
−5.307 | −4.789 | – | – | – | 0.0179 nM | ++ | −7.566 | 124 | – | – | – | – | – | – | AVAEIQLMHQRAKWELLEELLKILLELLKEYI [Peptide R2-38] | higher levels of recruitment of β-arrestin 1 | – | – | – | –
−1.455 | −3.381 | – | – | – | – | – | −5.52 | 92.4 | – | – | 800 nM | – | – | – | AVAEIQLMHQRAKWGLDLELAVKLQEILKDVL [Peptide R2-28] | – | – | – | – | –
−2.895 and −4.559 | −3.98 and −2.409 | – | – | – | 9.96 nM and 2.96 nM | – | −0.697 | – | – | – | 6.58 nM and 7.64 nM | + | – | – | AVAEIQLMHQRAKWGLDLELRARLREILRDVY [Peptide R2-31] | – | activity similar to the control peptide | – | – | –
−2.291 and −7.462 | −2.019 and −6.257 | – | – | – | 27.1 nM and 12.9 nM | – | −14.6415 | 84.5 | – | – | 16.1 nM and 12.5 nM | – | – | – | AVAEIQLMHQRAKWGLELELKEKLRKILEDVY [Peptide R2-26] | – | – | – | – | –
−0.6156 and −2.473 and −2.432 | −3.628 and −0.891 and −4.077 | – | – | – | – | – | −9.142 | 9.84 | activity similar to the control peptide | + | – | – | – | – | AVAEIQLMHQRAKWGVELQLKVDLRRILEDVY [Peptide R2-35] | – | – | – | – | –
– | – | – | – | – | 1.75 nM and 2.65 nM and 3.53 nM | + | −5.23 | 13.1 | – | – | 3.64 nM and 3.04 nM and 3.08 nM | ++ | −3.271 and −2.571 and −2.99 | −3.14 and −3.448 and −2.307 | AVAEIQLMHQRAKWIQDARRRAFLHKLIAEIH [LA-PM-FL, reference compound] | – | increased activity as compared to control | – | – | –
−3.1505 and −0.7628 | −8.231 and −1.939 | 98.8 | 64 | −14.2687 | 1890 nM | – | – | – | – | – | 0.0212 nM | ++ | – | – | AVAEIQLMHQRAKWKILEELLKILIDLLKQYI [Peptide R2-48] | – | increased activity as compared to control | – | – | –
−7.323 and −7.877 | −1.829 and −3.204 | – | – | – | 12 nM and 9.45 nM | – | −4.343 | 12.2 | activity similar to the control peptide | + | 22.6 nM and 8.32 nM | – | – | – | AVAEIQLMHQRAKWKLDLELAVSLRKILEDVY [Peptide R2-27] | – | – | – | – | –
−5.884 and −3.429 and −1.931 | −4.1664 and −3.85 and −3.8162 | – | – | – | 1.47 nM and 4.7 nM and 2.91 nM | + | −1.696 | 4.76 | activity similar to the control peptide | + | 2.5 nM and 1.98 nM and 5.39 nM | ++ | – | – | AVAEIQLMHQRAKWKLELELKAFLDQILKDVL [Peptide R2-36] | – | increased activity as compared to control | – | – | –
−3.965 and −2.819 | −3.2515 and −2.752 | – | – | – | 2.59 nM and 5.42 nM | – | −10.1961 | 12.9 | activity similar to the control peptide | + | 4.3 nM and 1.73 nM | ++ | – | – | AVAEIQLMHQRAKWKLELELKVKLLEILKDVY [Peptide R2-25] | – | increased activity as compared to control | – | – | –
−4.267 and −2.2289 | −2.543 and −1.4524 | – | – | – | 13.3 nM and 5.21 nM | – | −18.1852 | 80 | – | – | 12.1 nM and 5.02 nM | + | – | – | AVAEIQLMHQRAKWLEELKLKDDLRKILEDVY [Peptide R2-30] | – | activity similar to the control peptide | – | – | –
−2.007 and −4.048 and −4.079 | −5.331 and −2.162 and −8.426 | – | – | – | 5.83 nM and 10.3 nM and 3.98 nM | – | −17.9495 | 80.1 | – | – | 7.61 nM and 4.94 nM and 8.19 nM | + | – | – | AVAEIQLMHQRAKWLNELRLKEEMRKILEDVY [Peptide R2-33] | – | activity similar to the control peptide | – | – | –
−3.251 and −3.221 and −4.25 | −3.972 and −3.591 and −3.249 | – | – | – | 2.75 nM and 6.54 nM and 3.31 nM | – | −11.9049 | 106 | – | – | 4.54 nM and 3.85 nM and 8.05 nM | + | – | – | AVAEIQLMHQRAKWRLEIELLKKLKEILKDVY [Peptide R2-34] | – | activity similar to the control peptide | – | – | –
−3.163 | −3.619 | – | – | – | 1.61 nM | + | −3.312 | 4870 | – | – | – | – | – | – | GIAVITLMDLRAYLRAEYELREMLLRLLEEIF [Peptide R2-13] | – | – | – | – | –

Sequence | −log10Slope (PTHR1 [1]; replicate plates) | −log10Slope (PTHR1 [2]; replicate plates) | Emax (PTHR1 [3]) [%] | EC50 (PTHR1 [3]; [4]) [nM] | −log10Slope (PTHR1 [3]; [5]) | EC50 (PTHR1 [1]; replicate plates) | β1-arrestin (PTHR1 [1]) | −log10Slope (PTHR1 [3]; [6]) | EC50 (PTHR1 [3]; [7]) [nM] | cAMP accumulation activity compared to control peptide (PTHR1 [3]) | cAMP (PTHR1 [3]) | EC50 (PTHR1 [2]; replicate plates) | β2-arrestin (PTHR1 [2]) | −log10Slope (PTHR1 [1]; [8]) | −log10Slope (PTHR1 [2]; [8]) | β-arrestin1 recruitment compared to PTH 1-34 (PTHR1 [1]; FIG. 1, PTH 1-34 positive control) | β-arrestin2 assay activity compared to control peptide (PTHR1 [2]) | pEC50 (PTHR1 [1]; −log10EC50, β-arrestin1 recruitment, replicate plates) | pEC50 (PTHR1 [2]; −log10EC50, β-arrestin2 recruitment, replicate plates) | pEC50 (PTHR1 [3])
AVAEIQLMHQRAKWELEFELFREFLKLLVDFF [Peptide R1-97] | −0.04462 and −1.336 and −0.04454 and −4.221 | −4.859 and −4.946 and −1.289 and −4.995 | 99.3 | 58.7 | −14.176 | – | – | – | – | – | – | – | – | – | – | – | – | – | – | –
AVAEIQLMHQRAKWELQEIGIAITLRLLARYI [Peptide R2-43] | −3.786 and −3.741 and −1.605 | −6.422 and −8.23 and −2.379 | – | – | – | – | – | 7.669 | 0.0348 | increased activity as compared to the control peptide | ++ | – | – | – | – | – | – | – | – | –
AVAEIQLMHQRAKWGLEIELLKLLLSLLKEYI [Peptide R2-45] | −4.328 and −4.739 and −2.6191 | −2.787 and −1.761 and −3.574 | – | – | – | 483 nM and 470 nM and 542 nM | – | 4.438 | 0.00841 | increased activity as compared to the control peptide | ++ | 255 nM and 1750 nM and 337 nM | – | – | – | – | – | – | – | –
AVAEIQLMHQRAKWKLELELKEKIRKLLEDLL [Peptide R2-29] | −5.782 and −7.833 | −2.874 and −3.055 | – | – | – | – | + | −16.1973 | – | – | – | – | ++ | – | – | – | increased activity as compared to control | 8.15 and 8.77 | 8.39 and 8.46 | 7.22
AVAEIQLMHQRAKWSLREELEKLLKELLKEYI [Peptide R2-44] | −3.276 and −2.346 and −3.027 | −0.789 and −3.6425 and −9.383 | – | – | – | 2.88 nM and 15 nM and 2.81 nM | – | 0.4711 | 0.0365 | increased activity as compared to the control peptide | ++ | – | – | – | – | – | – | – | – | –
